In patent publication US5637319A, “Controlled-release preparations” (priority 1995, dated 1997):

What was measured:
[1] = after sulfasalazine to dogs; J. Pharm. Pharmacol., 1995 in press; cited from earlier work
[2] = Release study of cisplatin capsules with different pore number and amount of gel-forming polymer (FIGS. 1a-c, 2a-c); assay type: physicochemical
Source text: The release rate of extremely hydrophilic low-molecular weight drug such as cisplatin from the sustained-release preparation is affected by the following three factors; (1) pore number made on the water-insoluble polymer, (2) pore size and (3) amount of gel-forming material inside the preparation. From the standpoint of mechanical operation of opening many uniform pores, the pore size was fixed to be 800 μm. Under the fixed pore size condition, the effects of the pore number was at first examined and the release patterns of cisplatin from the preparations are shown in FIGS. 1a, b and c. […] The release study data are summarized with respect to the effect of the amount of gel-forming polymer and the results are shown in FIGS. 2a, b and c.
The test was performed according to the procedure of the paddle method (JPXII). A dissolution media employed were the 1st solution (JPXII, pH 1.2) and the 2nd solution (JPXII, pH 6.8). Nine hundred ml of the dissolution medium was used at 37°±0.1° C. at 100rpm. Test capsule was put into a stainless sinker. After being enclosed in the sinker, the capsule was put into 900 ml of the 1st solution maintained at 37° C. The shaft was then placed in the fluid at 37° C. and the paddle was rotated at 100 rpm. To simulate the transit from gastric to intestinal pH, samples of 1st solution were replaced one hour later with the 2nd solution. The release profile of 5-FU was estimated by measuring the appearance of the drug by HPLC method. The cisplatin concentration was estimated by analyzing for platinum by atomic absorption spectrophotometry.

[3] = Serum cisplatin concentration after oral administration to rabbits; assay type: in vivo, rabbit; details: sustained-release preparation
Procedure: The effects of the pore number and the amount of gel-forming polymer on the release profiles of cisplatin was confirmed in the in vivo study after oral administration of the preparations to rabbits using a reference preparation, cisplatin solution, at 20 mg/kg. […] The absorption rate of cisplatin is so rapid that the serum peak level appears within 1 hr.
In case of preparations of which drug release mechanism is based on the intestinal pressure, drug release profiles of the preparations in Examples 4, 5, 6, 7 and 8 cannot be measured by in vitro release experiments. In addition, in the case of sustained-release preparations in Examples 9, 10 and 11, the long-acting efficiency must be confirmed in the in vivo animal study after oral administration. Therefore, in vivo pharmacokinetics study was performed using beagle dogs and rabbits. In the in vivo study, the preparations of the Examples except examples 6, 10 and 11 were administered to dogs and rabbits, respectively. […] These plasma and serum samples were immediately frozen in a deep freezer at -20° C. until analyzed.
Plasma 5ASA and 5-FU concentrations were measured by an HPLC method after extraction of the drug from the plasma sample. The serum cisplatin level was determined by analyzing for platinum by atomic absorption spectrophotometry. The plasma calcitonin level was determined by an ELISA method.

[4] = dog, po
Source text: FIG. 18. Relationship between the thickness of EC layer of intestinal pressure controlled-release capsules and plasma fluorescein Tmax after oral administration to beagle dogs.

[5] = set-up: species or system beagle dog; details: dog, in vivo
Procedure: The peak time, Tmax, when the plasma 5-FU level reaches to its maximum level is used as a parameter for estimating the release time of drug in the GI tract after oral administration. […] According to the report of Anderson ([…]), for the dog, gastric emptying is 3-5 h, small intestine transit time is about 1 h and colonic transit time is 10-12 hr. On the other hand, Mizuta et al. (1989) reported that the small intestinal transit time in beagle dog is 3.0±1.4 h. Additionally, the transit of the test preparation was monitored by a direct examination of the dog intestine by abdominal incision. In this study, the delivery of these preparations to the ascending colon at 4 hr after administration was confirmed. In addition, to estimate the colon arrival time in the beagle dogs, sulfasalazine which is a pro-drug of 5ASA and is cleaved to sulfapyridine and 5ASA in the colon by azo-reductase of intestinal microflora was administered to the dogs. Sulfapyridine starts to appear in the blood circulation at 4 hr after administration and reaches to its maximum concentration at 10-12 hr (J. Pharm. Pharmacol., 1995 in press). Accordingly, colon arrival time has been estimated to be 4 hr in our beagle dogs.

[6] = system: blood total leukocyte (BTL) count; assay: Pharmacodynamic study: blood total leukocyte (BTL) count after oral administration of rhG-CSF capsule to beagle dogs; assay type: in vivo, beagle dog; details: 25 μg/kg oral, three dogs
Procedure: The test capsule, a preparation of Example 6, was orally administered to beagle dogs. At 30 min before drug administration, 0.6 ml of the blank blood sample was removed from the dog jugular vein. After administration, 0.1 ml of blood samples were collected at 10, 24, 36, 48, 60, 72 and 96 h. […] of the blood sample was used for blood total leukocyte (BTL) count. The BTL count was performed by microcell counter CC-180A (Sysmex, Toa Medical Electronics). The BTL count is expressed as a relative value, which is obtained by the respective control BTL count, namely the pre-dosing BTL count.

Molecule: Nc1ccc(S(=O)(=O)Nc2ccccn2)cc1 [Sulfapyridine, sulfapyridine]
- time at which sulfapyridine starts to appear in the blood circulation [1]: 4 h

Molecule: N.N.[Cl][Pt][Cl] [cisplatin]
- release rate of cisplatin, effect of pore number ([2]; gel-forming polymer 100 mg): the pore number did not affect the release rate of cisplatin any more
- effect of increase of the amount of gel-forming polymer on release ([2]; pore number 20): the effect of the increase of the amount of gel-forming polymer did not appear
- release rate of cisplatin, effect of pore number ([2]; pore number 20 to 30, gel-forming polymer 25 mg and 50 mg): the release rate of cisplatin increases
- release rate of cisplatin, effect of amount of gel-forming polymer ([2]; pore number 30 and 60, gel-forming polymer 25 mg to 50 mg): the release rate of cisplatin decreases
- prolonged effect of pore number ([2]; pore number 30 to 60, gel-forming polymer 25 mg and 50 mg): prolonged effect was not observed
- serum cisplatin levels, effect of pore number ([3]; pore number 20 to 30, carbopol 25 mg (FIG. 4)): significantly increases as the pore number increases from 20 to 30
- serum cisplatin level vs. time curves, effect of amount of gel-forming polymer ([3]; pore number 30 (FIG. 5)): there is not a significant difference

Molecule: O=C1OC2(c3ccc(O)cc3Oc3cc(O)ccc32)c2ccccc21 [fluorescein]
- capsule thickness vs. in vivo Tmax [4]: good corelationship between the capsule thickness and the in vivo Tmax

Molecule: O=C(O)c1cc(/N=N/c2ccc(S(=O)(=O)Nc3ccccn3)cc2)ccc1O [sulfasalazine]
- colon arrival time [5]: 4 h

B1: rhG-CSF: recombinant human granulocyte colony-stimulating factor, given orally as the capsule of Example 6 (protein, UniProt P09919 31-207, looked up)
Granulocyte …: TPLGPASSLPQSFLLKCLEQVRKIQGDGAALQEKLVSECATYKLCHPEELVLLGHSLGIPWAPLSSCPSQALQLAGCLSQLHSGLFLYQGLLQALEGISPELGPTLDTLQLDVADFATTIWQQMEELGMAPALQPTQGAMPAFASAFQRRAGGVLVASHLQSFLEVSYRVLRHLAQP
- BTL count relative to pre-dose level [6]: 1.3 folds of pre-dose level
- time at which BTL count starts to increase [6]: 10 h
- BTL count return to the normal level ([6]; end of the experiment): 96 h
